In the NIST ThermoML archive (doi:10.1021/je050065n):

How the values were obtained:
[1] = Molar enthalpy of transition or fusion; conditions: Crystal
[2] = molar heat capacity at constant pressure; conditions: 101.33 kPa

CCCCCCCCCCC(=O)OCC [ethyl undecanoate]
Conditions	Molar enthalpy of transition or fusion [kcal/mol]	Normal melting temperature [°C]	Triple point temperature [K]
Crystal	–	–	259.17
Metastable crystal	–	-21.8	–
[1]	8.628	–	–

[2]
Conditions	molar heat capacity at constant pressure [J/K/mol]
111.58 K, Crystal	173.66
113.84 K, Crystal	175.94
116.71 K, Crystal	178.91
119.57 K, Crystal	181.88
122.42 K, Crystal	185.27
128.15 K, Crystal	190.48
131.02 K, Crystal	194.47
133.86 K, Crystal	198.69
136.66 K, Crystal	198.56
139.44 K, Crystal	201.64
142.19 K, Crystal	204.69
144.9 K, Crystal	207.94
147.59 K, Crystal	211.29
150.26 K, Crystal	213.75
152.89 K, Crystal	217.3
155.51 K, Crystal	220.97
158.1 K, Crystal	224.09
160.67 K, Crystal	229.12
163.21 K, Crystal	233.25
165.73 K, Crystal	236.15
168.24 K, Crystal	230.57
170.74 K, Crystal	232.17
173.23 K, Crystal	234.76
175.7 K, Crystal	236.78
178.15 K, Crystal	239.4
180.59 K, Crystal	242.15
183.01 K, Crystal	244.19
185.42 K, Crystal	245.75
187.81 K, Crystal	248.17
190.18 K, Crystal	251.89
192.55 K, Crystal	256.43
194.9 K, Crystal	257.21
197.24 K, Crystal	257.78
199.56 K, Crystal	262.12
201.88 K, Crystal	266.33
204.18 K, Crystal	269.86
206.47 K, Crystal	268.45
208.75 K, Crystal	272.25
211.01 K, Crystal	276.09
213.26 K, Crystal	279.59
215.5 K, Crystal	279.55
217.73 K, Crystal	283.48
219.95 K, Crystal	287.5
222.16 K, Crystal	290.42
224.36 K, Crystal	293.74
226.54 K, Crystal	297.69
228.71 K, Crystal	302.05
230.87 K, Crystal	307.08
233.01 K, Crystal	312.1
235.14 K, Crystal	318.94
237.26 K, Crystal	327.12
239.36 K, Crystal	337.32
241.44 K, Crystal	349.15
243.49 K, Crystal	366.65
245.51 K, Crystal	390.29
247.49 K, Crystal	425.06
265.23 K, Liquid	419.66
267.18 K, Liquid	419.56
269.12 K, Liquid	420.55
271.06 K, Liquid	421.01
272.99 K, Liquid	421.34
274.93 K, Liquid	422.4
276.86 K, Liquid	423.5
278.79 K, Liquid	424.54
280.72 K, Liquid	424.74
282.65 K, Liquid	425.25
284.57 K, Liquid	425.82
286.49 K, Liquid	426.92
288.42 K, Liquid	427.56
290.34 K, Liquid	427.6
292.25 K, Liquid	429.47
292.35 K, Liquid	429.73
293.82 K, Liquid	430.15
294.17 K, Liquid	430.48
295.74 K, Liquid	431.35
296.09 K, Liquid	431.3
297.65 K, Liquid	432.04
298 K, Liquid	431.45
299.55 K, Liquid	433.51
299.92 K, Liquid	432.3
301.45 K, Liquid	434.67
301.84 K, Liquid	434.2
303.35 K, Liquid	436.03
303.75 K, Liquid	436.09
305.23 K, Liquid	437.3
305.67 K, Liquid	436.86
307.12 K, Liquid	438.29
307.58 K, Liquid	437.94
309 K, Liquid	438.55
309.5 K, Liquid	438.69
310.87 K, Liquid	439.73
311.41 K, Liquid	439.51
312.74 K, Liquid	440.36
313.32 K, Liquid	440.63
314.61 K, Liquid	441.72
315.24 K, Liquid	441.69
316.48 K, Liquid	441.83
317.15 K, Liquid	443.16
318.35 K, Liquid	443.44
320.22 K, Liquid	444.36
322.09 K, Liquid	445.9
323.96 K, Liquid	447.6
325.83 K, Liquid	448.49
327.7 K, Liquid	449.5
329.57 K, Liquid	450.4
331.44 K, Liquid	451.66
333.31 K, Liquid	453.33
335.19 K, Liquid	455.41
337.06 K, Liquid	456.14
338.94 K, Liquid	456.81
340.81 K, Liquid	458.35
342.69 K, Liquid	459.47
344.57 K, Liquid	461
346.45 K, Liquid	462.31
348.34 K, Liquid	463.75
350.22 K, Liquid	465.1
352.11 K, Liquid	466.34
354 K, Liquid	467.34
355.9 K, Liquid	468.59
357.8 K, Liquid	469.5
359.7 K, Liquid	471.05
361.6 K, Liquid	472.21
363.51 K, Liquid	473.69
365.42 K, Liquid	475.18
